Test results as given in ChEMBL document CHEMBL3817793, “Recent Progress in the Discovery of Next Generation Inhibitors of Aromatase from the Structure-Function Perspective” (J Med Chem, 2016).

Columns and labels:
Aromatase [1] = molecular target: T1, Aromatase (Homo sapiens, UniProt P11511); assay: Inhibition of human aromatase using testosterone as substrate incubated for 1 hr by HTRF assay
T1 sequence (P11511 whole entry): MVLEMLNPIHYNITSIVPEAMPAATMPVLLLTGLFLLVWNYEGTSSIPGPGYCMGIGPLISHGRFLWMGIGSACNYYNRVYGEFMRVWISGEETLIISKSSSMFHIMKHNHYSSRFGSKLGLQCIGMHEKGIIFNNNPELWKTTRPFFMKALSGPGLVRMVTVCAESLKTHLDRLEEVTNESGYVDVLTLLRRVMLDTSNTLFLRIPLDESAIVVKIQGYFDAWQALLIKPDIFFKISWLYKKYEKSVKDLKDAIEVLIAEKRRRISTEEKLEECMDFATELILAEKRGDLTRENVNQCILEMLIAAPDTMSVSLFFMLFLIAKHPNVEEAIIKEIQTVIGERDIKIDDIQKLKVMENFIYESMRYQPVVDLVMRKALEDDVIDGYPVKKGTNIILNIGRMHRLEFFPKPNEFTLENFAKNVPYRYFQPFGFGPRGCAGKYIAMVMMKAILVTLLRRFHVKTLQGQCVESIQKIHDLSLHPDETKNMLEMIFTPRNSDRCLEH

Aromatase [2] = molecular target: T1, Aromatase; assay: Inhibition of human placental microsomal aromatase using [1beta-3H] androstenedione as substrate assessed as tritiated H2O release preincubated for 5 mins followed by protein addition measured after 20 mins by beta counting method
Aromatase [3] = molecular target: T1, Aromatase; assay: Inhibition of human placental microsomal aromatase using [1beta-3H] androstenedione as substrate assessed as tritiated H2O release after 15 mins by liquid scintillation counting method
Aromatase [4] = molecular target: T1, Aromatase
Description: Competitive inhibition of human placental microsomal aromatase using androgen as substrate

Aromatase [5] = molecular target: T1, Aromatase; assay: Inhibition of human placental microsomal aromatase using testosterone as substrate assessed as formation of estradiol after 10 mins
Aromatase [6] = molecular target: T1, Aromatase; assay: Inhibition of particulate fractions of human breast cancer derived aromatase

Fc1ccc(-c2cc(-n3cccc3)c3ccccc3n2)cc1
IC50 (Aromatase [1]): 800 nM

C[C@]12Cc3cc[nH]c3C(=O)[C@@H]1CC[C@@H]1[C@@H]2CC[C@]2(C)[C@@H](O)CC[C@@H]12
IC50 (Aromatase [2]): 512 nM

C=CC[C@@H]1CC2=CCCC[C@]2(C)[C@H]2CC[C@]3(C)C(=O)CC[C@H]3[C@H]12
IC50 (Aromatase [3]): 750 nM

C=CC[C@@H]1CC2=CC(=O)CC[C@]2(C)[C@H]2CC[C@]3(C)C(=O)CC[C@H]3[C@H]12
IC50 (Aromatase [3]): 590 nM

C=CC[C@@H]1CC2=CC(=O)C=C[C@]2(C)[C@H]2CC[C@]3(C)[C@@H](O)CC[C@H]3[C@H]12
IC50 (Aromatase [3]): 450 nM

COc1ccc2c(Cc3ccccc3)c(-c3ccc(Cl)cc3)c(=O)oc2c1
Ki (Aromatase [4]): 84 nM

CC/C(=C(\c1ccc(O)cc1)c1ccc(OCCN(C)C)cc1)c1ccccc1 [AFIMOXIFENE]
IC50 (Aromatase [5]): 530000 nM

C[C@]12CCC(=O)C(O)=C1CC[C@@H]1[C@@H]2CC[C@]2(C)C(=O)CC[C@@H]12 [FORMESTANE]
IC50 (Aromatase [6]): 30 nM
